Test results taken from US7119221B2, “Cycloalkyl-hydroxyl compounds and compositions for cholesterol management and related uses” (Esperion Therapeutics, Inc., priority 2003, dated 2006).

Key:
primary rat hepatocytes = test: Inhibition of lipid synthesis ([1-14C]-acetate incorporation) in primary cultures of rat hepatocytes; format: cell-based; details: Hepatocyte, 4 hour incubation with [1-14C]-acetate, 0-300 μM compound
Method: Compounds were tested for inhibition of lipid synthesis in primary cultures of rat hepatocytes. Male Sprague-Dawley rats were anesthetized with intraperitoneal injection of sodium pentobarbital (80 mg/kg). Rat hepatocytes were isolated essentially as described by the method of Seglen (Seglen, P. O. Hepatocyte suspensions and cultures as tools in experimental carcinogenesis. J. Toxicol. Environ. Health 1979, 5, 551–560). Hepatocytes were suspended in Dulbecco's Modified Eagles Medium containing 25 mM D-glucose, 14 mM HEPES, 5 mM L-glutamine, 5 mM leucine, 5 mM alanine, 10 mM lactate, 1 mM pyruvate, 0.2% bovine serum albumin, 17.4 mM non-essential amino acids, 20% fetal bovine serum, 100 nM insulin and 20 μg/mL gentamycin) and plated at a density of 1.5×10^5 cells/cm^2 on collagen-coated 96-well plates. Four hours after plating, media was replaced with the same media without serum. Cells were grown overnight to allow formation of monolayer cultures. Lipid synthesis incubation conditions were initially assessed to ensure the linearity of [1-^14C]-acetate incorporation into hepatocyte lipids for up to 4 hours. Hepatocyte lipid synthesis inhibitory activity was assessed during incubations in the presence of 0.25 μCi [1-^14C]-acetate/well (final radiospecific activity in assay is 1 Ci/mol) and 0, 1, 3, 10, 30, 100 or 300 μM of compounds for 4 hours. At the end of the 4-hour incubation period, medium was discarded and cells were washed twice with ice-cold phosphate buffered saline and stored frozen prior to analysis. To determine total lipid synthesis, 170 μl of MicroScint-E® and 50 μl water was added to each well to extract and partition the lipid soluble products to the upper organic phase containing the scintillant. Lipid radioactivity was assessed by scintillation spectroscopy in a Packard TopCount NXT.

obese female Zucker rats = test: Oral daily treatment of chow fed obese female Zucker rats for fourteen days: serum lipids, glycemic control indicators, body weight; format: in vivo, rat; details: oral gavage, 14 days; for % wt. gain: obese female Zucker rats; for Glucose, Percent of Pre-treatment: blood glucose after 6 hour fast; for HDL-C, Percent of Pre-treatment / Insulin, Percent of Pre-treatment / Non-HDL-C, Percent of Pre-treatment: serum; for BHA, Percent of Pre-treatment: serum beta-hydroxy butyric acid; for NEFA, Percent of Pre-treatment: serum non-esterified fatty acids; for HDL-C/non-HDL-C: serum ratio; for TC, Percent of Pre-treatment: serum total cholesterol; for TG, Percent of Pre-treatment: serum triglycerides
Method: In a number of different experiments, illustrative compounds of the invention are administered daily at a dose of up to 100 mg/kg to chow fed obese female Zucker rats for fourteen days in the morning by oral gavage in 1.5% carboxymethylcellulose/0.2% Tween 20 or 20% ethanol/80% polyethylene glycol (dosing vehicles). Animals are weighed daily. Animals are allowed free access to rodent chow and water throughout the study except on days of blood sampling where food is restricted for six hours prior to blood sampling. Blood glucose is determined after the 6 hour fast in the afternoon without anesthesia from a tail vein. Serum is also prepared from pretreatment blood samples subsequently obtained from the orbital venous plexus (with O2/CO2 anesthesia) and following the fourteenth dose at sacrifice from the heart following O2/CO2 anesthesia. Serums are assayed for lipoprotein cholesterol profiles, triglycerides, total cholesterol, Non-HDL cholesterol, HDL cholesterol, the ratio of HDL cholesterol to that of Non-HDL cholesterol, insulin, non-esterified fatty acids, and beta-hydroxy butyric acid. The percent body weight gain and the ratio of liver to body weight is also determined. These are shown as absolute values or as a percent change of the pretreatment values in Table 1.

Compound | IC50 (primary rat hepatocytes) [µM] | % wt. gain (obese female Zucker rats; 100 mg/kg/day) [%] | Glucose, Percent of Pre-treatment (obese female Zucker rats; 100 mg/kg/day) [%] | HDL-C, Percent of Pre-treatment (obese female Zucker rats; 100 mg/kg/day) [%] | Insulin, Percent of Pre-treatment (obese female Zucker rats; 100 mg/kg/day) [%] | Non-HDL-C, Percent of Pre-treatment (obese female Zucker rats; 100 mg/kg/day) [%] | BHA, Percent of Pre-treatment (obese female Zucker rats; 100 mg/kg/day) [%] | NEFA, Percent of Pre-treatment (obese female Zucker rats; 100 mg/kg/day) [%] | HDL-C/non-HDL-C (obese female Zucker rats; 100 mg/kg/day) | TC, Percent of Pre-treatment (obese female Zucker rats; 100 mg/kg/day) [%] | TG, Percent of Pre-treatment (obese female Zucker rats; 100 mg/kg/day) [%] | also measured
CC(C)(CCCCC(O)CCCCC1(C(=O)O)CCC1)C(=O)O (stereo not shown) [A] | 12 | – | – | – | – | – | – | – | – | – | – | % wt. gain (obese female Zucker rats; 30 mg/kg/day): 12.3%; Glucose, Percent of Pre-treatment (obese female Zucker rats; 30 mg/kg/day): −1%; HDL-C, Percent of Pre-treatment (obese female Zucker rats; 30 mg/kg/day): 76%; Insulin, Percent of Pre-treatment (obese female Zucker rats; 30 mg/kg/day): −8%; Non-HDL-C, Percent of Pre-treatment (obese female Zucker rats; 30 mg/kg/day): −20%; BHA, Percent of Pre-treatment (obese female Zucker rats; 30 mg/kg/day): 150%; NEFA, Percent of Pre-treatment (obese female Zucker rats; 30 mg/kg/day): −30%; HDL-C/non-HDL-C (obese female Zucker rats; 30 mg/kg/day): 4; TC, Percent of Pre-treatment (obese female Zucker rats; 30 mg/kg/day): 37%; TG, Percent of Pre-treatment (obese female Zucker rats; 30 mg/kg/day): −23%
O=C(O)C1(CCCCCC(O)CCCCCC2(C(=O)O)CC2)CC1 [B] | 0.9 | 4.2 | −24 | 54 | −51 | −94 | 254 | −23 | 153 | 13 | −91 | –
O=C(O)C1(CCCCCC(O)CCCCCC2(C(=O)O)CCCC2)CCCC1 [Compound 6.33, 1-[11-(1-Carboxycyclopentyl)-6-hydroxyundecyl]-1-cyclopentanecarboxylic acid] | – | – | – | – | – | – | – | – | – | – | – | melting point: 76 to 77 °C
CC(C)(CCCCC(O)CCCCC1(C(=O)O)CC1)C(=O)O (stereo not shown) [Compound E] | 3 | 10.4 | −2 | 162 | 2 | 1 | 223 | −24 | 5 | 101 | −34 | –
CC(C)(CCCCCC(O)CCCCCC1(C(=O)O)CC1)C(=O)O (stereo not shown) [D] | 1.4 | −1.7 | −13 | 15 | −70 | −98 | 195 | −44 | 785 | −11 | −97 | –
O=C(O)C1(CCCCC(O)CCCCC2(C(=O)O)CC2)CC1 [F] | 1.8 | – | – | – | – | – | – | – | – | – | – | –
